The target of one assay is T1, récepteur androgène (Rattus norvegicus, UniProt P15207).
T1 construct: Des aliquotes du surnageant obtenu (=cytosol), sont incubées 30 minutes et 24 heures à 0°C; from tissue; host or cells: prostate cytosol of castrated male Sprague-Dawley rats
T1 sequence (P15207 1-902): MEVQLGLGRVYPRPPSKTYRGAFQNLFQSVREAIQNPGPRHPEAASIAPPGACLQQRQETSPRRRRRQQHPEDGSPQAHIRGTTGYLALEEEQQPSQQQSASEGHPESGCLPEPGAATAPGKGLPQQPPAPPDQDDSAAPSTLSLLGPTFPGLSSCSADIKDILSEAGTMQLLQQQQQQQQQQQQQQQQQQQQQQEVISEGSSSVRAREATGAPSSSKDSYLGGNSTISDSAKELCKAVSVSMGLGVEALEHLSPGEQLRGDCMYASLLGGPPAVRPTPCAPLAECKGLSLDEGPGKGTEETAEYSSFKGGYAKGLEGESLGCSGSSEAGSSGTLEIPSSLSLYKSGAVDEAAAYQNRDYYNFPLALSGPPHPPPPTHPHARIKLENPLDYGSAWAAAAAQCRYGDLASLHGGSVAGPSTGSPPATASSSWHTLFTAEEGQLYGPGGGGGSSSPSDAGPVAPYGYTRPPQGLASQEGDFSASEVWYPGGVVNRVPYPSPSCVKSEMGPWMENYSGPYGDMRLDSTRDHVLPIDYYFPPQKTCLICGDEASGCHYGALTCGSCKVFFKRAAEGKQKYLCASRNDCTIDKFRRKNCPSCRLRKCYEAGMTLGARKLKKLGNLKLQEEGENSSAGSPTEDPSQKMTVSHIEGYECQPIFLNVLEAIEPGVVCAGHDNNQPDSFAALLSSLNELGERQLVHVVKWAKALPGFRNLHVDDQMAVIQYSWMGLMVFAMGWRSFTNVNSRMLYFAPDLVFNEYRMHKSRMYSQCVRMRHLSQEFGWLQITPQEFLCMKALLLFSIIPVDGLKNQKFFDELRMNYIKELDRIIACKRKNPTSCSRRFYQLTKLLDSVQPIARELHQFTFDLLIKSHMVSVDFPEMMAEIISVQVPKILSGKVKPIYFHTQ
Put plainly: Relative binding affinity (ARL) for the androgen receptor: displacement of tritiated testosterone in prostate cytosol. The arrangement: species or system rats mâles Sprague. Dawley EOPS. The conditions noted are these: Incubation 24 hours at 0°C; prostate cytosol of castrated rats; ARL=100 (CH)/(CX), testosterone = 100. The protocol:
1) Etude de l'affinité des produits de l'invention pour le récepteur androgène
Des rats mâles Sprague. Dawley EOPS de 180-200 g, castrés de 24 heures, sont sacrifiés, les prostates prélevées, pesées et homogénéisées à 0°C à l'aide d'un potter verre-verre, dans une solution tamponnée (Tris lOmM, saccharose 0,25M, PMSF (phénylméthanesulfonylfluoride) 0,1mM, Molybdate de sodium 20mM, HCl pH 7,4; auxquels on ajoute extemporanément 2mM de DTT (DL dithiothreitol), à raison de 1 g de tissu pour 8 ml de tampon.
L'homogénat est ensuite ultracentrifugé à 0°C, 30 minutes à 209 000 g.
Calcul de l'affinité relative de liaison (ARL).
On trace les 2 courbes suivantes : le pourcentage de l'hormone tritiée liée B/T en fonction du logarithme de la concentration de l'hormone de référence froide et B/T en fonction du logarithme de la concentration du produit froid testé. On détermine la droite d'équation I50=(B/Tmax + B/Tmin)/2. B/T max= % de l'hormone tritiée liée pour une incubation de cette hormone tritiée à la concentration (T). B/T min= % de l'hormone tritiée liée pour une incubation de cette hormone tritiée à la concentration (T) en présence d'un grand excès d'hormone froide (2500.10^-9M) .
Les intersections de la droite I50 et des courbes, permettent d'évaluer les concentrations de l'hormone de référence froide (CH) et du produit froid testé (CX) qui inhibent de 50 % la liaison de l'hormone tritiée sur le récepteur.

Assay [1] concerns ornithine décarboxylase rénale. Description: Androgen / anti-androgen activity by assay of renal ornithine decarboxylase in castrated mice given testosterone propionate. It is filed as in vivo, souris mâles SWISS. The conditions noted are these: with testosterone propionate 3 mg/kg s.c., kidneys 20 hours after treatment, relative to controls given testosterone propionate only; for % d'inhibition de l'ODL Test A: Test A: percutaneous route, 1,5 mg/kg in 10 µl. The method, then: 2) Détermination de l'activité androgène ou anti-androgène des produits de l'invention à l'aide du dosage de l'ornithine décarboxylase.
- Protocole de traitement
20 heures après les traitements, les animaux sont sacrifiés, les reins prélevés, puis homogénéisés à 0°C , à l'aide d'un broyeur téflon-verre dans 10 volumes de tampon Tris-HCl 50 mM (pH 7,4) contenant 250 uM de phosphate de pyridoxal, 0,1 mM EDTA, et 5 mM de dithiothreitol. L'homogenat est ensuite centrifugé à 209000 g pendant 30 mn.
A 37°C, l'ornithine décarboxylase rénale transforme un mélange isotopique d'ornithine froide et d'ornithine tritiée en putrescine froide et putrescine tritiée.
La putrescine est ensuite recueillie sur des papiers sélectifs, échangeurs d'ions. Après séchage, l'excès d'ornithine tritiée et froide non transformée est éliminé, par 3 lavages d'ammoniaque 0,1 M. Les papiers sont séchés, puis la radioactivité est comptée après addition de scintillant Aqualite.
Les résultats sont exprimés en fmoles ([…]) de putrescine tritiée formée/heure/mg de protéines.
Test A : les produits sont administrés par voie percutanée à 1,5 mg/kg sous un volume de 10 µl. Test B : les produits sont administrés par voie orale à 1 mg/kg. Test C : les produits sont administrés par voie orale à 3 mg/kg.

For the compound `CC1(C)C(=O)N(c2ccc(C#N)c(C(F)(F)F)c2)C(=O)N1CCCCO` [Exemple 1, 4-(4,4-diméthyl 2,5-dioxo 3-(4-hydroxybutyl) 1-imidazolidinyl) 2-(trifluorométhyl) benzonitrile], the “ARL (affinité relative de liaison)” value on récepteur androgène is 31. The “% d'inhibition de l'ODL Test A” value in assay [1] is 40%. Moreover, the “% d'inhibition de l'ODL Test B” value in assay [1] (Test B: oral route, 1 mg/kg) came to 36%.
As for `CC1(C)C(=O)N(c2ccc(C#N)c(C(F)(F)F)c2)C(=S)N1CCCO` [Exemple 3, 4-(4,4-diméthyl 3-(3-hydroxypropyl) 5-oxo 2-thioxo 1-imidazolidinyl) 2-(trifluorométhyl) benzonitrile], the “% d'inhibition de l'ODL Test A” value in assay [1] is on record as 41%.
For the compound `CC1(C)C(=O)N(c2ccc(C#N)c(C(F)(F)F)c2)C(=S)N1CCO` [Exemple 2, 4-(4,4-diméthyl 3-(2-hydroxyéthyl) 5-oxo 2-thioxo 1-imidazolidinyl) 2-(trifluorométhyl) benzonitrile], the “ARL (affinité relative de liaison)” value at récepteur androgène amounted to 163. For the same compound, the “% d'inhibition de l'ODL Test A” value in assay [1] was 32%. Further, the “% d'inhibition de l'ODL Test C” value in assay [1] (Test C: oral route, 3 mg/kg) was 67%.
In the case of `COCCN1C(=S)N(c2ccc(C#N)c(C(F)(F)F)c2)C(=O)C1(C)C` [Exemple 5, 4-(4,4-diméthyl 3-(2-méthoxyéthyl) 5-oxo 2-thioxo 1-imidazolidinyl) 2-(trifluorométhyl) benzonitrile], the “ARL (affinité relative de liaison)” value at récepteur androgène stood at 81. Besides, the “% d'inhibition de l'ODL Test A” value in assay [1] was 62%.
Take `CC(C)N1C(=S)N(c2ccc(C#N)c(C(F)(F)F)c2)C(=O)C1(C)C` [Exemple 6, 4-(4,4-diméthyl 3-(1-méthyléthyl) 5-oxo 2-thioxo 1-imidazolidinyl) 2-(trifluorométhyl) benzonitrile]: the “ARL (affinité relative de liaison)” value at récepteur androgène was found to be 28. The “% d'inhibition de l'ODL Test A” value in assay [1] worked out at 35%.
The like results for `CC1(C)C(=O)N(c2ccc(C#N)c(C(F)(F)F)c2)C(=S)N1CCCCO` [Exemple 4, 4-(4,4-diméthyl 3-(4-hydroxybutyl) 5-oxo 2-thioxo 1-imidazolidinyl) 2-(trifluorométhyl) benzonitrile] were, in that order, 300 and 78%.
